The values that follow come from US20230201209A1, “PHARMACEUTICAL COMPOSITION FOR PREVENTING OR TREATING CANCER CONTAINING ANTIVIRAL AGENT AND ANTIDEPRESSANT AS ACTIVE INGREDIENTS” (FRONTBIO INC., priority 2020, published 2023).

This experiment concerns various cancer cells. In words: MTT analysis, summary statements on various cancer cells. Format: cell-based. On the procedure:
Specifically, ASPC-1 cell line, which is a pancreatic cancer cell line, and HCT116 cell line, which is a colon cancer cell line, was incubated in a 100 mm culture dish using DMEM-10% FBS under 5% CO2 at 37° C., inoculated into each well of a 96-well plate at 20% confluence, and incubated for 24 hours. The incubated cell lines were treated with efavirenz at a concentration of 2 μM and fluoxetine at a concentration of 2 μM alone or in combination and cultured in a CO2 incubator for 24 hours. The culture medium was removed from each well, 100 pl of a fresh culture medium was added, and 10 μl of a 12 mM MTT stock solution (5 mg MTT/PBS) was added, and incubation was performed at 37° C. for 2 hours. Thereafter, 100 pl of SDS-HCl solution (1 g SDS/10 ml 0.01 M HCl), which was a reaction terminating solution, was added, incubation was performed at 37° C. for 4 hours, and OD was measured at 570 nm using a microplate leader. Percentage (%) growth inhibition was calculated by comparing the OD thus measured to the OD of the cells not treated with drugs.

Setting [1] is: treated singly or in a complex, mixed or combined manner, MTT analysis.

Where two headings read alike, the source gives them in different places.

Consider `CN(C)CCC=C1c2ccccc2C(C)(C)c2ccccc21` [melitracene, melitracen], for which the “growth inhibitory effect in cancer cells” value under setting [1] is listed as “a growth inhibitory effect is exerted”.

Take `Cc1cccc(C)c1OCC(=O)N[C@@H](Cc1ccccc1)[C@@H](O)C[C@H](Cc1ccccc1)NC(=O)[C@H](C(C)C)N1CCCNC1=O` [lopinavir]: the “growth inhibitory effect in cancer cells” value under setting [1] is on record as “a growth inhibitory effect is exerted”.

As for `O=C1Nc2ccc(Cl)cc2[C@@](C#CC2CC2)(C(F)(F)F)O1` [efavirenz], under setting [1], the “growth inhibitory effect in cancer cells” value is given as “a growth inhibitory effect is exerted”.

Regarding `CNCCCN1c2ccccc2CCc2ccccc21` [desipramine], the “growth inhibitory effect in cancer cells” value under setting [1] is “a growth inhibitory effect is exerted”.

On to `CN(C)C(=N)NC(=N)N` [metformin], for which the “growth inhibitory effect in cancer cells” value under setting [1] was “a growth inhibitory effect is exerted”.

As for `CC(C)c1nc(CN(C)C(=O)N[C@H](C(=O)N[C@@H](Cc2ccccc2)C[C@H](O)[C@H](Cc2ccccc2)NC(=O)OCc2cncs2)C(C)C)cs1` [ritonavir], the “growth inhibitory effect in cancer cells” value under setting [1] is given as “a growth inhibitory effect is exerted”.

As for `Clc1ccc2c(c1)C(N1CCNCC1)=Nc1ccccc1O2` [amoxapine], the “growth inhibitory effect in cancer cells” value under setting [1] was “a growth inhibitory effect is exerted”.

On to `CNCC[C@H](Oc1cccc2ccccc12)c1cccs1` [duloxetine], for which the “growth inhibitory effect in cancer cells” value was “a growth inhibitory effect is exerted”.

As to `CN(C)CCC=C1c2ccccc2CCc2ccccc21` [amitriptyline], under setting [1], the “growth inhibitory effect in cancer cells” value is listed as “a growth inhibitory effect is exerted”.

Turning to `CC(C)CN(C[C@@H](O)[C@H](Cc1ccccc1)NC(=O)O[C@H]1CO[C@H]2OCC[C@H]21)S(=O)(=O)c1ccc(N)cc1` [darunavir], the “growth inhibitory effect in cancer cells” value is listed as “a growth inhibitory effect is exerted”.

For the molecule `CN(C)CCCN1c2ccccc2CCc2ccc(Cl)cc21` [clomipramine], the “growth inhibitory effect in cancer cells” value under setting [1] is given as “a growth inhibitory effect is exerted”.

Consider `CNCCC=C1c2ccccc2CCc2ccccc21` [nortriptyline], for which the “growth inhibitory effect in cancer cells” value under setting [1] is recorded as “a growth inhibitory effect is exerted”.

In the case of `COC(=O)N[C@H](C(=O)N[C@@H](Cc1ccccc1)[C@@H](O)CN(Cc1ccc(-c2ccccn2)cc1)NC(=O)[C@@H](NC(=O)OC)C(C)(C)C)C(C)(C)C` [atazanavir], the “growth inhibitory effect in cancer cells” value under setting [1] is on record as “a growth inhibitory effect is exerted”.

Regarding `CC(CN(C)C)CN1c2ccccc2CCc2ccccc21` (centres unmarked) [trimipramine], under setting [1], the “growth inhibitory effect in cancer cells” value is on record as “a growth inhibitory effect is exerted”.

With `CNCCC(Oc1ccc(C(F)(F)F)cc1)c1ccccc1` (centres unmarked) [fluoxetine], the “growth inhibitory effect in cancer cells” value under setting [1] is “a growth inhibitory effect is exerted”.

For the molecule `Cc1cc(C#N)cc(C)c1Oc1nc(Nc2ccc(C#N)cc2)nc(N)c1Br` [etravirine], the “growth inhibitory effect in cancer cells” value under setting [1] is reported as “a growth inhibitory effect is exerted”.

Turning to `COCCCC/C(=N\OCCN)c1ccc(C(F)(F)F)cc1` [fluvoxamine], under setting [1], the “growth inhibitory effect in cancer cells” value is recorded as “a growth inhibitory effect is exerted”.

Consider `Fc1ccc([C@@H]2CCNC[C@H]2COc2ccc3c(c2)OCO3)cc1` [paroxetine], for which the “growth inhibitory effect in cancer cells” value under setting [1] is reported as “a growth inhibitory effect is exerted”.

Turning to `CNCCCC1c2ccccc2C=Cc2ccccc21` [protriptyline], under setting [1], the “growth inhibitory effect in cancer cells” value is “a growth inhibitory effect is exerted”.

As for `CNCCCC12CCC(c3ccccc31)c1ccccc12` [maprotyline, maprotiline], the “growth inhibitory effect in cancer cells” value under setting [1] is “a growth inhibitory effect is exerted”.
